Results from patent US20240150389A1, “MODIFIED GUANINES” (NUCLERA NUCLEICS LTD, priority 2021, published 2024).

How the values were obtained:
TdT = test: Enzymatic DNA synthesis reactions (N+20 nucleotide additions with TdT, analysed by next-generation sequencing); type: biochemical
Method: Enzymatic N+20 nucleotide addition reactions were conducted on polymer-coated silica paramagnetic particles. Enzymatic DNA synthesis was performed on a ThermoFisher KingFisher sample purification system. Enzymatic DNA synthesis consists of cycles of addition solution (containing TdT, reversibly terminated nucleotide and a near-neutral extension solution comprising one or more buffers (e.g., Tris or cacodylate), one or more salts (e.g., Na^+, K^+, Mg^2+, Mn^2+, Cu^2+, Zn^2+, Co^2+, etc. all with appropriate counterions, such as Cl^−) and inorganic pyrophosphatase (e.g., the Saccharomyces cerevisiae homolog)), wash 1 solution (HEPES+5 mM EDTA at pH 8.00), deblock solution (sodium nitrite at pH 5.5), and wash 2 solution (HEPES at pH 7.20). The following sequences […] (Oligo A) and […] (Oligo B) were synthesized in triplicate. DNA products were analysed by next-generation sequencing on an Illumina MiniSeq. Data showing the percent perfect sequences are shown in the following plots for synthesis of these sequences with reversibly terminated dG and reversibly terminated 8-aza-dG; other nucleotides are reversibly terminated dA, dC or dT.

[1] = Stability tests of modified 2′-deoxyguanosines in NDS buffer vs. 2′-deoxyguanosine (nitrite-mediated deamination); type: physicochemical; details: for stability in NDS compared with 2′-deoxyguanosine: nitrite deprotection solution (sodium nitrite in 1M sodium acetate, pH 5.5), room temperature, over 4 days, HPLC or LC/MS
Method: Stability Tests of Modified 2′-Deoxyguanosines in NDS Buffer vs. 2′-Deoxyguanosine
Nitrite deprotection solution (NDS) was prepared from sodium nitrite (380 mg, 5.5 mmol) and 1M pH 5.5 sodium acetate (7.868 mL) and adjusted to pH 5.5 with 10M sodium hydroxide. Samples of nucleoside (˜0.5 mg) were dissolved in 1 mL aliquots of this buffer. The samples were analysed by HPLC or LC/MS using Method 1 or Method 2 immediately after making up the samples and at intervals over 4 days while stored at room temperature alongside reference samples of 2′-deoxyguanosine. 2′-Deoxyguanosine gave an approximately 8:1 mixture of 2′-deoxyxanthosine and Peak (3) with the same mass as 2′-deoxyxanthosine. 7-Deaza-2′-deoxyguanosine gave 7-deaza-2′-deoxyxanthosine as one component of a complex mixture of products. Other nucleosides gave products with masses corresponding to the products of substitution of NH2 with OH (increase of 1 Da) assigned to the 2′-deoxyxanthosine analogues. Data for 7-deaza-2′-deoxyguanosine (X=CH, Y=CH), 7-deaza-7-trifluoromethyl-2′-deoxyguanosine (X=CCF3, Y=CH), 7-deaza-7-cyano-2′-deoxyguanosine, 7-deaza-7-methanesulfonyl-2′-deoxyguanosine (X=CSO2Me, Y=CH) and 8-aza-2′-deoxyguanosine (X=N, Y=N) for experiments run in parallel with 2′-deoxyguanosine (X=CH, Y=N) are shown in the plots below.

Compound	stability in NDS compared with 2′-deoxyguanosine [1]	other results
3′-(O)-Acetoxime-8-Aza-2′-Deoxyguanosine 5′-Triphosphate [reversibly terminated 8-aza-dG]		efficiency of additions of any nucleotide to 8-aza-dG terminated sequences compared with dG terminated sequences (TdT; TdT addition, Oligo A and Oligo B): less efficient; percent perfect sequences compared with products made with dG (TdT; synthesis of Oligo A and Oligo B in triplicate, Illumina MiniSeq): lower level of percent perfect sequences
CS(=O)(=O)c1cn(C2CC(O)C(CO)O2)c2nc(N)[nH]c(=O)c12 (stereo not shown) [7-(MethanesulfonyI)-7-Deaza-2′-Deoxyguanosine]	slightly more stable	
Nc1nc2c(ccn2[C@H]2C[C@H](O)[C@@H](CO)O2)c(=O)[nH]1 [7-Deaza-2′-deoxyguanosine, reference compound]	much less stable	
Nc1nc2c(c(C(F)(F)F)cn2[C@H]2C[C@H](O)[C@@H](CO)O2)c(=O)[nH]1 [7-Deaza-7-Trifluoromethyl-2′-Deoxyguanosine]	slightly more stable	
N#Cc1cn([C@H]2C[C@H](O)[C@@H](CO)O2)c2nc(N)[nH]c(=O)c12 [7-deaza-7-cyano-2′-deoxyguanosine, 7-Deaza-7-Cyano-2′-Deoxyguanosine]	slightly more stable	
Nc1nc2c(nnn2[C@H]2C[C@H](O)[C@@H](CO)O2)c(=O)[nH]1 [8-Aza-2′-deoxyguanosine]		factor by which more stable in NDS than 2′-deoxyguanosine ([1]; nitrite deprotection solution pH 5.5, room temperature, run in parallel with 2′-deoxyguanosine): 4.2
